{"source": "patent US20140357579A1", "about": "“SYNTHETIC PEPTIDE AMIDES AND DIMERS THEREOF” (priority 2006, published 2014)", "key": {"[1]": {"molecular_target": "T1, mouse kappa opioid receptor (mKOR) (Mus musculus, UniProt P33534)", "T1 construct": "a mouse thymoma cell line that expresses only the kappa-opioid receptor and no other opioid receptor subtype; host or cells: R1.G1 mouse thymoma cells", "T1 sequence (P33534 whole entry)": "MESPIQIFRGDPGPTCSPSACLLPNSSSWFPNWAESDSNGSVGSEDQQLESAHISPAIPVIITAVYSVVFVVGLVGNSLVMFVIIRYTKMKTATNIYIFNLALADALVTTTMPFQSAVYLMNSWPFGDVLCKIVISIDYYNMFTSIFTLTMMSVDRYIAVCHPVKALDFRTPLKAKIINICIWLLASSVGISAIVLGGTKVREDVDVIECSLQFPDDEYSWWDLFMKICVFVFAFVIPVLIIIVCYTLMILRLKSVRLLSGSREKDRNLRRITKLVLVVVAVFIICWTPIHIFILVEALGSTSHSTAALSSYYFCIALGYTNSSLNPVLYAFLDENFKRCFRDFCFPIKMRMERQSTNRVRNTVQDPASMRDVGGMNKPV", "assay": "Inhibition of forskolin-stimulated cAMP production in R1.G1 cells (TR-FRET cAMP immunoassay)", "type": "cell-based", "conditions": "for pEC50 / EC50: inhibition of forskolin-stimulated cAMP; for pEC50: read-out: mKOR EC50; for EC50: mKOR EC50 (nM)"}, "[2]": {"molecular_target": "T2, human kappa opioid receptor (hKOR) (Homo sapiens, UniProt P41145)", "T2 construct": "expressed in transfected cells; host or cells: HEK-293 cells (ATCC), transient transfection with pcDNA3-hOPRK1", "T2 sequence (P41145 whole entry)": "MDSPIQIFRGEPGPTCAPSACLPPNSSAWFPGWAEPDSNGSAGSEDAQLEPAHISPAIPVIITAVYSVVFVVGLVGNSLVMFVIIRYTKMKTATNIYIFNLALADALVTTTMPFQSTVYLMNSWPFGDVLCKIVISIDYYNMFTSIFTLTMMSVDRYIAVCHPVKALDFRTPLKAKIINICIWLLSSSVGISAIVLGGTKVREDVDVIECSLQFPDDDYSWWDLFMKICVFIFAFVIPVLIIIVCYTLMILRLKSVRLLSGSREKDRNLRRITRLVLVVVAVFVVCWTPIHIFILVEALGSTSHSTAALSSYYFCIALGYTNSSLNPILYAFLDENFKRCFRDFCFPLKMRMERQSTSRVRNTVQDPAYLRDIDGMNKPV", "assay": "NFAT-luciferase reporter assay in HEK-293 cells transfected with human kappa opioid receptor and chimeric G-protein", "type": "cell-based", "conditions": "for hKOR Efficacy(%): percent maximal activation compared to full induction by known kappa agonists; for pEC50: transfected HEK-293 cells, luciferase reporter, read-out: hKOR EC50"}, "[3]": {"conditions": "R1.G1 cells, read-out: mKOR Efficacy(%)"}, "[4]": {"conditions": "read-out: mKOR Efficacy(%), R1.G1 cells"}}, "note": "pEC50: −log10 of the molar value. Like-named read-outs stand apart in the source and are kept apart here. Bridge positions count the residues as written; N and C are the ends. Square brackets hold non-standard residues; d marks the D form. Side chains are listed from the residue outwards. Peptide text beside a SMILES is read from it. I, II: the chains in the order shown. dAgb = N=C(N)NCC[C@@H](N)C(=O)O; dAgp = N=C(N)NC[C@@H](N)C(=O)O; dNle = CCCC[C@@H](N)C(=O)O; dOrn = NCCC[C@@H](N)C(=O)O; Api = NC1(C(=O)O)CCNCC1"}
{"smiles": "CC(C)C[C@@H](NC(=O)[C@@H](Cc1ccccc1)NC(=O)[C@H](N)Cc1ccccc1)C(=O)N[C@H](CCCN)C(=O)NCCN1CCN(CC(=O)O)CC1", "note": "[Compound 1, D-Phe-D-Phe-D-Leu-D-Orn-[4-(2-aminoethyl)-1-carboxymethyl-piperazine]-OH]", "values": [{"measurement": "mKOR Efficacy(%)", "setting": "[1]; R1.G1 cells", "result": 98, "unit": "%"}, {"measurement": "hKOR Efficacy(%)", "setting": "[2]", "result": 102, "unit": "%"}, {"measurement": "pEC50", "setting": "[2]", "result": 9.31}]}
{"smiles": "CC(C)C[C@@H](NC(=O)[C@@H](Cc1ccccc1)NC(=O)[C@H](N)Cc1ccccc1)C(=O)N[C@H](CCCN)C(=O)N1CCC(CC(=O)O)CC1", "note": "[Compound 2, D-Phe-D-Phe-D-Leu-D-Orn-[4-Carboxymethyl-piperidine]-OH]", "values": [{"measurement": "mKOR Efficacy(%)", "setting": "[1]; R1.G1 cells", "result": 97, "unit": "%"}, {"measurement": "hKOR Efficacy(%)", "setting": "[2]", "result": 99, "unit": "%"}, {"measurement": "pEC50", "setting": "[2]", "result": 9.89}]}
{"smiles": "CCCC[C@@H](NC(=O)[C@@H](Cc1ccccc1)NC(=O)[C@H](N)Cc1ccccc1)C(=O)N[C@H](CCCNC(=N)N)C(=O)N1CCC[C@@H]1C(=O)O", "note": "[Compound 3, D-Phe-D-Phe-D-Nle-D-Arg-D-Pro-OH] (H-[dF][dF][dNle][dR][dP]-OH; N-terminus assumed)", "values": [{"measurement": "mKOR Efficacy(%)", "setting": "[1]; R1.G1 cells", "result": 88, "unit": "%"}]}
{"smiles": "CC(C)C[C@@H](NC(=O)[C@@H](Cc1ccccc1)NC(=O)[C@H](N)Cc1ccccc1)C(=O)N[C@H](CCCN)C(=O)N[C@@H]1CN[C@H](C(=O)O)C1", "note": "[Compound 5, D-Phe-D-Phe-D-Leu-D-Orn-[(2S,4S)-4-Amino-pyrrolidine-2-carboxylic acid]-OH]", "values": [{"measurement": "mKOR Efficacy(%)", "setting": "[1]; R1.G1 cells", "result": 96, "unit": "%"}]}
{"smiles": "CC(C)C[C@@H](NC(=O)[C@@H](Cc1ccccc1)NC(=O)[C@H](N)Cc1ccccc1)C(=O)N[C@H](CCCN)C(=O)N1CCC(N)(C(=O)O)CC1", "note": "[Compound 6, D-Phe-D-Phe-D-Leu-D-Orn-[omega(4-Aminopiperidine-4-carboxylic acid)]-OH]", "values": [{"measurement": "mKOR Efficacy(%)", "setting": "[1]; R1.G1 cells", "result": 100, "unit": "%"}, {"measurement": "hKOR Efficacy(%)", "setting": "[2]", "result": 107, "unit": "%"}, {"measurement": "pEC50", "setting": "[2]", "result": 9.77}]}
{"smiles": "CC(C)C[C@@H](NC(=O)[C@@H](Cc1ccccc1)NC(=O)[C@H](N)Cc1ccccc1)C(=O)N[C@H](CCCN)C(=O)N1CCC(CC(N)C(=O)O)CC1", "note": "(stereo partly drawn) [Compound 7, D-Phe-D-Phe-D-Leu-D-Orn-[ω(D/L-2-Amino-3-(4-N-piperidinyl)propionic acid)]-OH]", "values": [{"measurement": "mKOR Efficacy(%)", "setting": "[1]; R1.G1 cells", "result": 102, "unit": "%"}, {"measurement": "hKOR Efficacy(%)", "setting": "[2]", "result": 104, "unit": "%"}, {"measurement": "pEC50", "setting": "[2]", "result": 9.85}]}
{"smiles": "CC(C)C[C@@H](NC(=O)[C@@H](Cc1ccccc1)NC(=O)[C@H](N)Cc1ccccc1)C(=O)N[C@H](CCCN)C(=O)N1CCNC(C(=O)O)C1", "note": "(stereo partly drawn) [Compound 8, D-Phe-D-Phe-D-Leu-D-Orn-[omega(D/L-piperazine-2-carboxylic acid)]-OH]", "values": [{"measurement": "mKOR Efficacy(%)", "setting": "[1]; R1.G1 cells", "result": 102, "unit": "%"}, {"measurement": "hKOR Efficacy(%)", "setting": "[2]", "result": 93, "unit": "%"}, {"measurement": "pEC50", "setting": "[2]", "result": 9.80}]}
{"smiles": "CC(C)C[C@@H](NC(=O)[C@@H](Cc1ccccc1)NC(=O)[C@H](N)Cc1ccccc1)C(=O)N[C@H](CCCN)C(=O)NC1CCN(CC(N)=O)CC1", "note": "[Compound 15, D-Phe-D-Phe-D-Leu-D-Orn-[4-Amino-1-carboxymethyl-piperidine]-NH2]", "values": [{"measurement": "mKOR Efficacy(%)", "setting": "[1]; R1.G1 cells", "result": 93, "unit": "%"}]}
{"smiles": "CNCCC[C@@H](NC(=O)[C@@H](CC(C)C)NC(=O)[C@@H](Cc1ccccc1)NC(=O)[C@H](N)Cc1ccccc1)C(=O)N1CCCN(C(=N)N)CC1", "note": "[Compound 21, D-Phe-D-Phe-D-Leu-(δ-Me)D-Orn-[4-Amidinohomopiperazine amide]]", "values": [{"measurement": "mKOR Efficacy(%)", "setting": "[1]; R1.G1 cells", "result": 97, "unit": "%"}]}
{"smiles": "CC(C)C[C@@H](NC(=O)[C@@H](Cc1ccccc1)NC(=O)[C@H](N)Cc1ccccc1)C(=O)N[C@H](CCCNC(C)C)C(=O)N1CCCN(C(=N)N)CC1", "note": "[Compound 22, D-Phe-D-Phe-D-Leu-(δ-iPr)D-Orn-[4-Amidinohomopiperazine amide]]", "values": [{"measurement": "mKOR Efficacy(%)", "setting": "[1]; R1.G1 cells", "result": 97, "unit": "%"}]}
{"smiles": "CNCCC[C@@H](NC(=O)[C@@H](CC(C)C)NC(=O)[C@@H](Cc1ccccc1)NC(=O)[C@H](N)Cc1ccccc1)C(=O)N1CCCNCC1", "note": "[Compound 23, D-Phe-D-Phe-D-Leu-(-Me)D-Orn-[homopiperazine amide]]", "values": [{"measurement": "mKOR Efficacy(%)", "setting": "[1]; R1.G1 cells", "result": 95, "unit": "%"}]}
{"smiles": "CC(C)C[C@@H](NC(=O)[C@@H](Cc1ccccc1)NC(=O)[C@H](N)Cc1ccccc1)C(=O)N[C@H](CCCNC(C)C)C(=O)N1CCCNCC1", "note": "[Compound 24, D-Phe-D-Phe-D-Leu-(6-iPr)D-Orn-[homopiperazine amide]]", "values": [{"measurement": "mKOR Efficacy(%)", "setting": "[1]; R1.G1 cells", "result": 96, "unit": "%"}]}
{"smiles": "CC(C)C[C@@H](N)C(=O)N[C@H](CCCN)C(=O)N[C@@H](CCCCNC(=O)[C@@H](CCCN)NC(=O)[C@@H](CC(C)C)NC(=O)[C@@H](Cc1ccccc1)NC(=O)[C@H](N)Cc1ccccc1)C(=O)O", "note": "[Compound 39, D-Phe-D-Phe-D-Leu-D-Orn-[eLys(D-Orn-D-Leu-H)]-OH]", "values": [{"measurement": "pEC50", "setting": "[1]; R1.G1 cells", "result": 7.17}, {"measurement": "Emax", "setting": "[1]; [3]", "result": 35, "unit": "%"}]}
{"smiles": "CC(C)C[C@@H](N)C(=O)N[C@H](CCCN)C(=O)N[C@H](CCCCNC(=O)[C@@H](CCCN)NC(=O)[C@@H](CC(C)C)NC(=O)[C@@H](Cc1ccccc1)NC(=O)[C@H](N)Cc1ccccc1)C(=O)O", "note": "[Compound 46]", "values": [{"measurement": "pEC50", "setting": "[1]; R1.G1 cells", "result": 9.92}, {"measurement": "Emax", "setting": "[1]; [3]", "result": 95, "unit": "%"}]}
{"smiles": "CC(C)C[C@@H](NC(=O)[C@H](N)Cc1ccccc1)C(=O)N[C@H](CCCN)C(=O)N[C@H](CCCCNC(=O)[C@@H](CCCN)NC(=O)[C@@H](CC(C)C)NC(=O)[C@@H](Cc1ccccc1)NC(=O)[C@H](N)Cc1ccccc1)C(=O)O", "note": "[Compound 47]", "values": [{"measurement": "EC50", "setting": "[1]; R1.G1 cells", "result": 0.05, "unit": "nM"}, {"measurement": "Emax", "setting": "[1]; [4]", "result": 91, "unit": "%"}]}
{"smiles": "CC(C)C[C@@H](NC(=O)[C@@H](Cc1ccccc1)NC(=O)[C@H](N)Cc1ccccc1)C(=O)N[C@H](CCCN)C(=O)NCCCC[C@@H](NC(=O)[C@@H](CCCN)NC(=O)[C@@H](CC(C)C)NC(=O)[C@@H](Cc1ccccc1)NC(=O)[C@H](N)Cc1ccccc1)C(=O)O", "note": "[Compound 48] (H-[dF][dF][dL][dOrn][dK]([dOrn-dL-dF-dF])-OH)", "values": [{"measurement": "EC50", "setting": "[1]; R1.G1 cells", "result": 0.34, "unit": "nM"}, {"measurement": "Emax", "setting": "[1]; [4]", "result": 85, "unit": "%"}]}
{"smiles": "CC(C)C[C@@H](NC(=O)[C@@H](Cc1ccccc1)NC(=O)[C@H](N)Cc1ccccc1)C(=O)N[C@H](CCCNC(C)C)C(=O)NC1(C(=O)O)CCN(C(=O)[C@@H](CCCNC(C)C)NC(=O)[C@@H](CC(C)C)NC(=O)[C@@H](Cc2ccccc2)NC(=O)[C@H](N)Cc2ccccc2)CC1", "note": "[Compound 49]", "values": [{"measurement": "Emax", "setting": "[1]; [4]", "result": 50, "unit": "%"}]}
{"smiles": "CC(C)C[C@@H](NC(=O)[C@@H](Cc1ccccc1)NC(=O)[C@H](N)Cc1ccccc1)C(=O)N[C@H](CNC(=N)N)C(=O)NC1(C(=O)O)CCN(C(=O)[C@@H](CNC(=N)N)NC(=O)[C@@H](CC(C)C)NC(=O)[C@@H](Cc2ccccc2)NC(=O)[C@H](N)Cc2ccccc2)CC1", "note": "[Compound 50] (H-[dF][dF][dL][dAgp][Api]([dAgp-dL-dF-dF])-OH)", "values": [{"measurement": "EC50", "setting": "[1]; R1.G1 cells", "result": 56.7, "unit": "nM"}, {"measurement": "Emax", "setting": "[1]; [4]", "result": 77, "unit": "%"}]}
{"smiles": "CC(C)C[C@@H](NC(=O)[C@@H](Cc1ccccc1)NC(=O)[C@H](N)Cc1ccccc1)C(=O)N[C@H](CCNC(=N)N)C(=O)NC1(C(=O)O)CCN(C(=O)[C@@H](CCNC(=N)N)NC(=O)[C@@H](CC(C)C)NC(=O)[C@@H](Cc2ccccc2)NC(=O)[C@H](N)Cc2ccccc2)CC1", "note": "[Compound 51, 1N,4N-bis-(D-Phe-D-Phe-D-Leu-D-Nar)-4amino-4carboxylic piperidine] (H-[dF][dF][dL][dAgb][Api]([dAgb-dL-dF-dF])-OH)", "values": [{"measurement": "EC50", "setting": "[1]; R1.G1 cells", "result": 95.8, "unit": "nM"}, {"measurement": "Emax", "setting": "[1]; [4]", "result": 60, "unit": "%"}]}
{"smiles": "CC(C)C[C@@H](NC(=O)[C@@H](Cc1ccccc1)NC(=O)[C@H](N)Cc1ccccc1)C(=O)N[C@@H]1CCCCNC(=O)CNC(=O)[C@H](NC(=O)[C@@H](CC(C)C)NC(=O)[C@@H](Cc2ccccc2)NC(=O)[C@H](N)Cc2ccccc2)CCCCNC(=O)CNC1=O", "note": "[Compound 52, D-Phe-D-Phe-D-Leu-(D-Lys-GlyLactam)2-D-Leu-D-Phe-D-Phe] (I: H-[dF][dF][dL][dK]G / II: H-[dF][dF][dL][dK]G; amide I:4-II:C, I:C-II:4 (inferred); N-terminus assumed)", "values": [{"measurement": "Emax", "setting": "[1]; [4]", "result": 76, "unit": "%"}]}
